This data set concerns larval zebrafish. The data set can be described thus: Larval photomotor behavior test (light/dark locomotor test). The data set is classed as in vivo. To be noted: for distance traveled relative to vehicle control: on average across larval ages; for Behavior score (total change from control): sum of absolute [1 − (AUC value/DMSO)] over all concentrations, epochs and 3, 4, 5 dpf. The protocol:
At 4 hpf, embryos were treated with 50 µl of 41 mg/ml protease from Streptomyces griseus (P5147, Sigma-Aldrich, St. Louis, MO, United States) in 25 ml of FW for a maximum of 6 min to remove the chorion ([Truong et al., 2011]). At 5 hpf, embryos were placed in individual wells of 96-well plates filled with 100 µl of EM. At 6 hpf, embryos were exposed to a 2× concentration of the selected PCB congeners or controls that were diluted in 100 μl EM to produce a 1× concentration in a total of 200 µl solution. […] After exposure, plates were covered with Parafilm M (Bemis NA, Neenah, WI, United States) to reduce evaporation and placed in an incubator at 28.5°C with 14 h light (∼300 lux)/10 h dark cycles. Final DMSO concentrations were 0.2% (vol/vol) for all exposures. Fish were statically exposed until 5 dpf.
Larval locomotor tests were performed at 3, 4, and 5 dpf. Vehicle and PCB-exposed larvae in 96-well plates were placed in a DanioVision behavior system (Noldus Information Technology, Leesburg, VA, United States) and subjected to a 35 min light/dark locomotor test. System and plate temperature were maintained at 28.5 ± 0.5°C using a temperature control unit from Noldus. The testing paradigm consisted of a 10 min light period (∼1,900 lux) to allow for acclimation (5 min) and to record baseline swimming (5 min). This was followed by a 5 min dark period (∼0 lux) to stimulate increased swimming behavior and a 5 min light period (∼1,900 lux) to stimulate freezing behavior. The last 15 min consisted of a dark period (∼0 lux) to observe increased swimming behavior and acclimation to the dark conditions.
The distance traveled binned per minute by each larva during the 35-min observation test period was recorded via continuous tracing using a DanioVision system camera with an infrared filter to allow recording in both light and dark conditions. Movement was tracked using EthoVisionXT software (Noldus Information Technology) and exported to Excel and Prism 6.0 (GraphPad Software) for analysis and visualization. Dead and/or malformed larvae (as noted by observation under dissecting scope) were excluded from the behavior analysis.
The trapezoidal rule was used to compute the area under the curve (AUC) for each fish per day per lighting condition. The first 5 min of the 35-min observation period was removed to account for initial acclimation. Therefore, data were analyzed for the following time epochs: Light 1 (L1) = 6–10 min, Dark 1 (D1) = 11–15 min, Light 2 (L2) = 16–20 min, and Dark 2 (D2) = 21–35 min. Mixed effects regression models, including zebrafish-specific random effects, were used to assess differences between groups. DMSO groups from each spawn date (≥3 independent spawns) and plate were combined in the analysis. Separate models were fit for each congener. New variables were defined to capture differences in the AUC between Light 1 and Dark 1, Dark 1 and Light 2, and Light 2 and Dark 2, to measure change in distance traveled when transitioning from light to dark or dark to light. Contrasts were specified to compare these transitions and the AUC during each of the lighting conditions between the exposed groups and the DMSO control group. […] Due to some zeroes in the AUC, all values were shifted by 0.1 prior to taking the natural logarithm. Concentration (0.1, 0.3, 1, 3, 10 µM and DMSO), day (3, 4, 5 dpf), and the transition variables were all of interest in the models, including their interactions. Akaike information criterion was used for model selection and Wald tests for comparing groups. All analyses were conducted using SAS version 9.4.
The neurotoxic potential of the congeners tested in this study were ranked based on the three endpoints measured in this study: RYR binding, behavior, and body burden. Congeners were ranked relative to each other for each individual endpoint from 1 (highest) to 6 (lowest), and then the three scores for each congener averaged to obtain an overall relative ranking for each congener. […]

With `Clc1ccc(-c2ccc(Cl)c(Cl)c2)c(Cl)c1` [PCB 66], the “Behavior score (total change from control)” value worked out at 14.39. Besides, for the setting “0.11 µM, L1”, the “distance traveled relative to vehicle control” value is reported as “significantly decreased”. In addition, for the setting “1 µM, L1”, the “distance traveled relative to vehicle control” value is listed as “significantly decreased”.

Regarding `Clc1cc(Cl)c(-c2cc(Cl)c(Cl)cc2Cl)cc1Cl` [PCB 153, 2,2',4,4',5,5'-Hexachlorobiphenyl], the “Behavior score (total change from control)” value is 23.05. Also, the “L1-D1 transition relative to vehicle control” value (0.3 µM, 4 dpf) is on record as “attenuating”. Besides, the “distance moved relative to vehicle control” value (0.3 µM, 4 dpf, L1) is listed as “moved more”. For the same compound, the “L1-D1 transition relative to vehicle control” value (1 µM, 3 dpf) is “larger”. Further, the “distance moved relative to vehicle control” value (1 µM, 3 dpf, D1) is “moved more”. Further, the “distance moved relative to vehicle control” value (1 µM, 3 dpf, D2) was “moved more”. Besides, the “distance moved relative to vehicle control” value (1 µM, 3 dpf, L2) is on record as “moved more”. Moreover, the “L1-D1 transition relative to vehicle control” value (10 µM, 3 dpf) is listed as “larger”. The “distance moved relative to vehicle control” value (10 µM, 3 dpf, D1) is listed as “moved more”. Also, where the note is “10 µM, 3 dpf, D2”, the “distance moved relative to vehicle control” value was “moved more”. In addition, the “distance moved relative to vehicle control” value (10 µM, 3 dpf, L2) is recorded as “moved more”. In addition, where the note is “10 µM, 4 dpf, L2”, the “distance moved relative to vehicle control” value is given as “moved more”. In addition, the “L1-D1 transition relative to vehicle control” value (10 µM, 5 dpf) is “attenuated”. The “distance moved relative to vehicle control” value (10 µM, 5 dpf, L1) was “moved more”. Moreover, the “distance moved relative to vehicle control” value (10 µM, 5 dpf, L2) is listed as “more movement”.

As for `Clc1ccc(-c2ccc(Cl)cc2Cl)cc1` [PCB 28], the “Behavior score (total change from control)” value is 10.83. Besides, the “increase of L1-D1 transition relative to vehicle controls” value (0.1 µM, 4 dpf) is on record as 0.9 mm. Also, the “distance moved relative to vehicle control” value (0.1 µM, 4 dpf, D1) was “significantly more”. For the same compound, where the note is “0.3 µM, 4 dpf”, the “increase of L1-D1 transition relative to vehicle controls” value is on record as 1.3 mm. Also, the “distance moved relative to vehicle control” value (0.3 µM, 4 dpf, D1) is reported as “significantly more”. The “distance moved relative to vehicle control” value (0.3 µM, 4 dpf, L1) is recorded as “traveling less”. In addition, the “increase of L1-D1 transition relative to vehicle controls” value (1 µM, 4 dpf) is 0.87 mm. Also, the “distance moved relative to vehicle control” value (1 µM, 4 dpf, D1) is on record as “significantly more”. For the same compound, where the note is “3 µM, 3 dpf, D2”, the “distance moved relative to vehicle control” value was “significantly less”. For the same compound, the “increase of L1-D1 transition relative to vehicle controls” value (3 µM, 4 dpf) came out at 0.9 mm. Further, the “distance moved relative to vehicle control” value (3 µM, 4 dpf, D1) is recorded as “significantly more”. Further, the “distance moved relative to vehicle control” value (10 µM, 3 dpf, D2) is “significantly less”. Moreover, the “increase of L1-D1 transition relative to vehicle controls” value (10 µM, 4 dpf) amounted to 0.8 mm. For the same compound, the “distance moved relative to vehicle control” value (10 µM, 5 dpf, L2) is “moved less”.

For the compound `Clc1cc(Cl)c(-c2ccc(Cl)c(Cl)c2Cl)cc1Cl` [PCB 138], the “Behavior score (total change from control)” value is reported as 29.32. Besides, the “increase of L1-D1 transition compared to the control group” value (0.3 µM, 4 dpf) turned out to be 0.821. In addition, under “1 µM, 3 dpf, D1”, the “distance moved relative to vehicle control” value is “moved more”. Also, the “increase of L1-D1 transition compared to the control group” value (1 µM, 4 dpf) is on record as 0.68. The “distance moved relative to vehicle control” value (3 µM, 3 dpf, D1) was “moved more”. In addition, the “distance moved relative to vehicle control” value (3 µM, 3 dpf, D2) was “moved more”. For the same compound, the “decrease of L1-D1 transition compared to controls” value (3 µM, 5 dpf) came to 0.7. For the same compound, the “distance moved relative to vehicle control” value (10 µM, 3 dpf, D1) was “moved more”. Also, the “distance moved relative to vehicle control” value (10 µM, 3 dpf, D2) was “moved more”. Further, under “10 µM, 4 dpf, not quite statistically significant (p = 0.06)”, the “decrease of L1-D1 transition compared to the control group” value is recorded as 0.6. Moreover, under “10 µM, 5 dpf, D2”, the “distance moved relative to vehicle control” value is “moved less”.

As for `Clc1ccc(Cl)c(-c2c(Cl)ccc(Cl)c2Cl)c1` [PCB 95, 2,2',3,5',6-pentachlorobiphenyl], the “Behavior score (total change from control)” value turned out to be 81.46. For the same compound, the “L1-D1 transition relative to vehicle control” value (0.1 µM, 4 dpf) was “moved more”. Also, the “distance moved relative to vehicle control” value (3 µM, 3 dpf, D2) is on record as “moved more”. Besides, the “distance moved relative to vehicle control” value (3 µM, 3 dpf, L2) is listed as “moved more”. The “L1-D1 transition relative to vehicle control” value (3 µM, 5 dpf) was “significantly less”. Moreover, the “distance moved relative to vehicle control” value (3 µM, 5 dpf, L1) is “more”. Moreover, under “10 µM, 3 dpf, D1”, the “distance moved relative to vehicle control” value is given as “significantly more”. For the same compound, the “distance moved relative to vehicle control” value (10 µM, 3 dpf, D2) is listed as “significantly more”. The “distance moved relative to vehicle control” value (10 µM, 3 dpf, L1) is on record as “significantly more”. For the same compound, the “distance moved relative to vehicle control” value (10 µM, 3 dpf, L2) is “significantly more”. In addition, the “L1-D1 transition relative to vehicle control” value (10 µM, 4 dpf) is “decreased”. For the same compound, the “distance moved relative to vehicle control” value (10 µM, 4 dpf, D1) was “significantly less”. Further, the “distance moved relative to vehicle control” value (10 µM, 4 dpf, L1) is given as “significantly more”. The “distance moved relative to vehicle control” value (10 µM, 4 dpf, L2) is on record as “significantly more”. Further, the “L1-D1 transition relative to vehicle control” value (10 µM, 5 dpf) is “decreased”. Besides, the “distance moved relative to vehicle control” value (10 µM, 5 dpf, D1) was “significantly less”. Moreover, the “distance moved relative to vehicle control” value (10 µM, 5 dpf, D2) was “significantly less”. For the same compound, the “distance moved relative to vehicle control” value (10 µM, 5 dpf, L1) is listed as “more”.

Regarding `Clc1cccc(-c2c(Cl)ccc(Cl)c2Cl)c1Cl` [PCB 84], the “Behavior score (total change from control)” value was 28.93. Also, the “distance moved relative to vehicle control” value (0.1 µM, 3 dpf, D1) is “moved less”. Moreover, the “distance moved relative to vehicle control” value (0.1 µM, 3 dpf, D2) is listed as “moved less”. Further, where the note is “0.1 µM, 3 dpf, L2”, the “distance moved relative to vehicle control” value was “moved less”. Also, the “L1-D1 transition relative to vehicle control” value (0.3 µM, 4 dpf) is recorded as “moved more”. Moreover, the “distance moved relative to vehicle control” value (0.3 µM, 4 dpf, L1) was “significantly less movement”. The “distance moved relative to vehicle control” value (0.3 µM, 5 dpf, L1) is listed as “moved more”. Moreover, the “L1-D1 transition relative to vehicle control” value (1 µM, 4 dpf) is recorded as “moved more”. The “distance moved relative to vehicle control” value (1 µM, 4 dpf, L1) was “significantly less movement”. The “distance moved relative to vehicle control” value (3 µM, 3 dpf, L2) was “moved more”. For the same compound, the “L1-D1 transition relative to vehicle control” value (3 µM, 5 dpf) is reported as “increased less”. Further, where the note is “3 µM, 5 dpf, L1”, the “distance moved relative to vehicle control” value is recorded as “moved more”. In addition, the “distance moved relative to vehicle control” value (10 µM, 3 dpf, D1) is “moved more”. The “distance moved relative to vehicle control” value (10 µM, 3 dpf, D2) is “moved more”. For the same compound, the “distance moved relative to vehicle control” value (10 µM, 3 dpf, L1) was “Increased”. For the same compound, the “distance moved relative to vehicle control” value (10 µM, 3 dpf, L2) is recorded as “Increased”. In addition, the “L1-D1 transition relative to vehicle control” value (10 µM, 4 dpf) was “moved less”. For the same compound, where the note is “10 µM, 5 dpf”, the “L1-D1 transition relative to vehicle control” value is recorded as “increased less”. Moreover, the “distance moved relative to vehicle control” value (10 µM, 5 dpf, L1) is “moved more”.
